In publication PMC6918103 (Advanced Science, 2019):
Where “and” joins values, the source holds several entries; their conditions need not be identical. Identical values can stand only once.

Columns and labels:
[1] = Hepatic and renal function analysis; type: in vivo, female BALB/c mice; settings: mice after treatment
From the text: Gastrointestinal toxicity evaluation
Nine female BALB/c mice were divided into four groups (n=3 each group) and were […]
saline (control) every day. Five days later, the mice were sacrificed and their blood was obtained for hepatic and renal function analysis. The stomach, duodenum, jejunum and ileum were taken and fixed in 4% paraformaldehyde solution for hematoxylin and eosin (H&E) staining. The histological sections were imaged using an optical microscope.
Student's t-test was used to determine significant differences between the two groups.
When p<0.05, there was a significant difference, and very significant differences between two groups were defined as p<0.01.

[2] = Partition into mixed micellar phase and mixed micelle size after 3 h digestion; type: in vitro ADME; settings: Sprague-Dawley, rat
Experimental: (§1) Simulated intestinal digestion
(§2) Bile-pancreatic juice was obtained from the common bile duct of anesthetized rats, which contained bile as well as pancreatic juice as previously described. Then, 20 µL of emulsion was incubated with 180 µL bile-pancreatic juice at 37°C with gentle shaking to simulate intestinal digestion. Samples (20 µL) of the incubation solution were taken at regular intervals (0, 0.08, 0.25, 0.5, 1, 2, 3 h) and added to 180 µL of ACN to analyze the concentration of the TG prodrugs and the monoglyceride derivatives of DTX (MG prodrugs) by HPLC. The solubility of prodrugs in aqueous phase were also determined. […] 20 µL of aqueous phase were collected and the concentration of the TG prodrugs and MG prodrugs were determined as above. The fraction of TG-like prodrugs and MG-like prodrugs partitioning in mix micelle phase (aqueous phase) relative to those in raw digesta were calculated to evaluate the solubility of the prodrugs. At the same time, the particle sizes of mix micelles were measured by Malvern laser particle size analyzer. […]
(§3) In order to study the stability of linkers in circulation, TG prodrugs were incubated with rat plasma supplemented with lipoprotein lipase (LPL, 10000 IU/mL) in which TG prodrugs can be hydrolyzed into MG prodrugs rapidly. […] The concentration of TG, MG prodrugs and free DTX were determined by HPLC. […]

[3] = Simulated intestinal digestion in bile-pancreatic juice (TG prodrug remaining, MG prodrug generated); type: in vitro ADME, rat
Experimental: as §1, §2, §3

[4] = Stability of prodrugs in rat plasma supplemented with lipoprotein lipase; type: in vitro ADME; settings: 12 h
[5] = In situ recirculating intestinal perfusion (absorption rate Ka, with or without orlistat); settings: rats
[6] = test system: 4T1 cells; test: MTT cytotoxicity in 4T1 cells; type: cell-based
[7] = test system: 4T1 xenograft tumors; test: In vivo antitumor effect (tumor volume, tumor burden, body weight, H&E of organs); design: species or system female BALB/c mice; settings: 4T1 tumor bearing mice; po, 20 mg kg^−1 equivalent to DTX, every alternate day for 10 days
Experimental: F௥௘௟ = AUCா௠௨௟௦௜௢௡ ∙Doseௌ௢௟/AUCௌ௢௟/Doseா௠௨௟௦௜௢௡
Fab = AUCp.o. ∙ Dosei.v./AUCi.v./Dosep.o.
Absorption mechanism and biodistribution of TG-mimetic prodrug
The PPa-S-S-TG was synthesized as scheme S2, the PPa-S-S-TG emulsion and its simulated intestinal digestion were implemented in accordance with the step of the TG-like DTX prodrug emulsion. Its reduction-responsibility was verified by incubation PBS with or without DTT. In brief, phosphate buffer solution (pH 7.4) (containing 30% ethanol (v/v)) with or without dithiothreitol (DTT) was used as the release media. The concentration of DTT was fixed at 10 mM. Then, 200 µL of the emulsions (PPa-S-S-TG) was incubated with 20 mL release media (reduction-sensitive or reduction-insensitive) at 37°C. At 0, 3, 12 h, 40 µL samples were taken and added to 160 µL of ACN for analysis. The content change of the PPa-S-S-TG was monitored by HPLC.
The PPa-S-S-TG and the PPa solution (10 mg/kg equivalent to PPa) were administrated to female BALB/c mice bearing the 4T1 cell line. At scheduled times the mice were sacrificed and the GITs, MLNs and tumors were taken out for fluorescence imaging by the Caliper IVIS ® Spectrum in vivo Imaging System. The intestinal tissue of PPa-S-S-TG group was then washed, fixed with 4% paraformaldehyde for 2 h, and dehydrated in 30% sucrose overnight. […]
was used as a control. […] Body weight and tumor volume were recorded every day. […]

[8] = test system: KB cells; test: MTT cytotoxicity in KB cells; type: cell-based

SMILES | ALT ([1]; AVERAGE of 3 animals) [U/L] | AST ([1]; AVERAGE of 3 animals) [U/L] | BUN ([1]; AVERAGE of 3 animals) [mmol/L] | CR ([1]; AVERAGE of 3 animals) [µmol/L] | ALT ([1]; individual animal) | AST ([1]; individual animal) | BUN ([1]; individual animal) | CR ([1]; individual animal) | Partition of TG-like prodrug into the micellar phase [2] | Intestinal digestion (rate) in bile-pancreatic juice [3] | Amount of MG derivative generated ([3]; Sprague-Dawley, rat, 3 h) [%] | DTX released [4] [%] | Ka, fold increase in comparison with the DTX solution [5] [fold] | Cytotoxicity (IC50 values) ([6]; 48 h) [µg/mL] | Cytotoxicity (IC50 values) ([6]; 72 h) [µg/mL] | Tumor inhibition [7] | Cytotoxicity (IC50 values) ([8]; 48 h) [µg/mL] | Cytotoxicity (IC50 values) ([8]; 72 h) [µg/mL]
CC(=O)O[C@@]12CO[C@@H]1C[C@H](O)[C@@]1(C)C(=O)[C@H](O)C3=C(C)[C@@H](OC(=O)[C@H](O)[C@@H](NC(=O)OC(C)(C)C)c4ccccc4)C[C@@](O)([C@@H](OC(=O)c4ccccc4)[C@H]21)C3(C)C [DTX i.g.] | 41.6037 | 150.819 | 8.409 | 62.3087 | 57.9809 U/L and 28.6275 U/L and 38.2028 U/L | 129.269 U/L and 163.103 U/L and 160.084 U/L | 8.8262 mmol/L and 7.2013 mmol/L and 9.1982 mmol/L | 51.2097 µmol/L and 66.2585 µmol/L and 69.4579 µmol/L |  |  |  |  |  |  |  |  |  | 
CCCCCCCCCCCCCCCC(=O)OCC(COC(=O)CCCCCCCCCCCCCCC)OC(=O)C(CCC(=O)O[C@@H](C(=O)O[C@H]1C[C@@]2(O)[C@@H](OC(=O)c3ccccc3)[C@@H]3[C@]4(OC(C)=O)CO[C@@H]4C[C@H](O)[C@@]3(C)C(=O)[C@H](O)C(=C1C)C2(C)C)[C@@H](NC(=O)OC(C)(C)C)c1ccccc1)OC(=O)C(C)(C)C (stereo partly shown) [DTX‐5C(Piv)‐TG] |  |  |  |  |  |  |  |  | about 40.2% | poorest intestinal digestion rate | 74 | 10 | 1.15 |  |  |  |  | 
CCCCCCCCCCCCCCCC(=O)OCC(COC(=O)CCCCCCCCCCCCCCC)OC(=O)CCCC(=O)O[C@@H](C(=O)O[C@H]1C[C@@]2(O)[C@@H](OC(=O)c3ccccc3)[C@@H]3[C@]4(OC(C)=O)CO[C@@H]4C[C@H](O)[C@@]3(C)C(=O)[C@H](O)C(=C1C)C2(C)C)[C@@H](NC(=O)OC(C)(C)C)c1ccccc1 [DTX‐5C‐TG] |  |  |  |  |  |  |  |  |  |  |  |  | 1.91 | 0.3571 | 0.1569 | effective tumor inhibition | 0.2265 | 0.0882
